Results: PubChem BioAssay (NCI)
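Briefly, cells in 96-well plates were exposed to five compound concentrations for 48 h, and endpoints were estimated by linear interpolation. TGI: concentration producing complete growth inhibition.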

Assays:
Assay in all cases: NCI tumour cell line growth inhibition, 48 h
SK-MEL-28 melanoma = tested on: SK-MEL-28 melanoma
LOX IMVI melanoma = tested on: LOX IMVI melanoma
SNB-75 CNS = tested on: SNB-75 CNS
K-562 leukemia = tested on: K-562 leukemia
EKVX NSCLC = tested on: EKVX NSCLC
HOP-92 NSCLC = tested on: HOP-92 NSCLC
OVCAR-3 ovarian = tested on: OVCAR-3 ovarian
COLO 205 colon = tested on: COLO 205 colon
HT29 colon = tested on: HT29 colon
NCI-H23 lung = tested on: NCI-H23 lung
M19-MEL melanoma = tested on: M19-MEL melanoma
NCI-H522 lung = tested on: NCI-H522 lung
A549 NSCLC = tested on: A549 NSCLC
SK-MEL-2 melanoma = tested on: SK-MEL-2 melanoma
NCI/ADR-RES ovarian = tested on: NCI/ADR-RES ovarian
DMS 273 small cell lung = tested on: DMS 273 small cell lung
UACC-257 melanoma = tested on: UACC-257 melanoma
UO-31 renal = tested on: UO-31 renal
CCRF-CEM leukemia = tested on: CCRF-CEM leukemia
HOP-18 NSCLC = tested on: HOP-18 NSCLC
P388 leukemia = tested on: P388 leukemia
SF-539 CNS = tested on: SF-539 CNS
HCT-15 colon = tested on: HCT-15 colon
HL-60(TB) leukemia = tested on: HL-60(TB) leukemia
OVCAR-5 ovarian = tested on: OVCAR-5 ovarian
OVCAR-8 ovarian = tested on: OVCAR-8 ovarian
NCI-H226 lung = tested on: NCI-H226 lung
SF-268 CNS = tested on: SF-268 CNS
MALME-3M melanoma = tested on: MALME-3M melanoma
SNB-78 CNS = tested on: SNB-78 CNS
U251 CNS = tested on: U251 CNS
SN12K1 renal = tested on: SN12K1 renal
HCT-116 colon = tested on: HCT-116 colon
MOLT-4 leukemia = tested on: MOLT-4 leukemia
RXF 393 renal = tested on: RXF 393 renal
OVCAR-4 ovarian = tested on: OVCAR-4 ovarian
SK-MEL-5 melanoma = tested on: SK-MEL-5 melanoma
HCC-2998 colon = tested on: HCC-2998 colon
MCF7 breast = tested on: MCF7 breast
IGROV1 ovarian = tested on: IGROV1 ovarian
SF-295 CNS = tested on: SF-295 CNS
DMS 114 small cell lung = tested on: DMS 114 small cell lung
RPMI-8226 leukemia = tested on: RPMI-8226 leukemia
XF 498 CNS = tested on: XF 498 CNS
DLD-1 colon = tested on: DLD-1 colon
HOP-62 NSCLC = tested on: HOP-62 NSCLC
A498 renal = tested on: A498 renal
NCI-H460 lung = tested on: NCI-H460 lung
SW-620 colon = tested on: SW-620 colon
SN12C renal = tested on: SN12C renal
KM20L2 colon = tested on: KM20L2 colon
SNB-19 CNS = tested on: SNB-19 CNS
SK-OV-3 ovarian = tested on: SK-OV-3 ovarian
KM12 colon = tested on: KM12 colon

Measured: TGI

COc1cc(-c2ccc(N=Nc3c(S(=O)(=O)O)cc4cc(S(=O)(=O)O)cc(N)c4c3O)c(OC)c2)ccc1N=Nc1c(S(=O)(=O)O)cc2cc(S(=O)(=O)O)cc(N)c2c1O
> 77.4 µM: HOP-92 NSCLC
> 67.9 µM: XF 498 CNS
> 100 µM: all other assays above
